Measurements: patent US20230212123A1, “Pyridine Inhibitors of Glucosylceramide Synthase and Therapeutic Methods Using the Same” (THE REGENTS OF THE UNIVERSITY OF MICHIGAN, priority 2020, published 2023)

What was measured:
[1] = target: T1, glucosylceramide synthase (GCS) (Canis lupus familiaris, UniProt A0A8I3MXG6); test: GCS inhibition in MDCK cell homogenates (Lysate IC50); format: biochemical, canine; conditions: MDCK cell homogenate
T1 construct: endogenous in cells; host or cells: MDCK cell homogenate
T1 sequence (A0A8I3MXG6 1-394): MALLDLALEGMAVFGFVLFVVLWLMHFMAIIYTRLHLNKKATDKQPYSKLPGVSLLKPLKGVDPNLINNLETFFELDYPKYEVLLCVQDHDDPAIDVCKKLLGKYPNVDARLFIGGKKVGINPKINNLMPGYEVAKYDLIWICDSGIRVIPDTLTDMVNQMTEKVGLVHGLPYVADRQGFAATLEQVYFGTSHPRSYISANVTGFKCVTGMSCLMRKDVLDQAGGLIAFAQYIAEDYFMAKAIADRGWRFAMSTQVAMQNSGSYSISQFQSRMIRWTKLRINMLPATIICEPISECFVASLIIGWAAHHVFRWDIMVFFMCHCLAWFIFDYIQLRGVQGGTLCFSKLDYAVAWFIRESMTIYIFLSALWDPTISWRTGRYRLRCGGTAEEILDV
Procedure: GCS Inhibition in MDCK Cell Homogenates (Lysate IC50, Table 1)
IC50 values for new compounds of the invention were determined as reported in Shayman J. A., Abe A. 2000. Glucosylceramide synthase: assay and properties. Methods Enzymol.311: 42-49.

GCS in MDCKII cells = target: T2, GCS in MDCKII cells (Canis lupus familiaris, UniProt A0A8I3MXG6); test: GCS inhibition in MDCKII cells (glucosylceramide content after 24 h); format: cell-based, canine
T2 construct: whole cellular lipids of wild type MDCKII cells were extracted; endogenous in cells; host or cells: wild type MDCKII cells
T2 sequence (A0A8I3MXG6 1-394): T1 sequence (A0A8I3MXG6 1-394)
Procedure: GCS Inhibition in MDCKII Cells (MDCKII IC50, Table 1)
MDCKII cells were routinely maintained in medium consisting of Opti-MEM/F12 (1:1), 5% FBS, 100 U/mL of penicillin, 100 µg/mL streptomycin and 200 mM L-glutamine. MDCKII cells were newly thawed from frozen ampules every two months.
Stock solutions of water-insoluble glycosphingolipid inhibitors (100 mM) were prepared by dissolving each inhibitor into 100% ethanol as previously described (3). The inhibitor-ethanol solutions then were diluted 50X into 2 mM delipidated bovine serum albumin-phosphate buffered saline solution to make water-soluble glycosphingolipid inhibitor-bovine serum albumin complexes. The inhibitor-bovine serum album complexes were sterile-filtered and stored at -20° C. Prior to use, portions of the inhibitor-bovine serum albumin complexes were further diluted with Opti-F12 to make treatment solutions. Equal amounts of bovine serum albumin and ethanol were added into the control cultures. Cells (5 x 10^5) were seeded into 10-cm culture dishes containing 10 ml of Opti-F12 with 5% FBS. After 24 hours, the medium was replaced with fresh serum-free Opti-F12 medium, and cells were exposed to candidate GCS inhibitors at concentrations of 0, 1, 3, 10, 30, 100 and 300 nM for 24 hours.
Following inhibitor treatment, whole cellular lipids of wild type MDCKII cells were extracted as previously described in detail (10). Briefly, cells were washed with ice-cold phosphate buffered saline, fixed by methanol, and collected with rubber scraper. Chloroform was then added to yield a theoretical ratio of chloroform:methanol:water at 1:2:0.8 (v/v/v) to form a mono-phase. Cell debris and proteins were removed by centrifugation at 2200 x g for 30 min. The supernatants were portioned by adding chloroform and 0.9% NaCl. The lower organic phases containing neutral glycosphingolipids lipids were washed with methanol and 0.9% NaCl, and subjected to base- and acid-hydrolysis (10). A portion of purified glycosphingolipids normalized to 100 nmol of total phospholipids was analyzed by high performance thin layer chromatography. The thin layer chromatography separations were processed twice. The plate pretreated with 1% sodium borate was first developed in a solvent system consisting of chloroform/methanol (98/2, v/v). After air drying, the plate was then developed in a solvent system containing chloroform/methanol/water (70/30/4, v/v/v). The levels of glucosylceramide were detected by charring with 8% cupric sulfate in 8% phosphoric acid, and quantified by densitometric scanning using ImageJ, NIH Image. Image data was analyzed, and the IC50 of each inhibitor was calculated using GraphPad Prism (version 5.03).

[2] = tested on: glucosylceramide (GlcCer) in brain and liver; test: Reduction of brain and liver glucosylceramide in CBE mice; format: in vivo; conditions: 14 days, D409V/null mice with CBE 25 mg/kg/day ip
Procedure: The in vivo assay measured the reduction in brain and liver glucosylceramide and glucosylsphingosine levels in mice on a D409V background concurrently treated with conduritol B epoxide (CBE), an irreversible inhibitor of GBA (beta-glucocerebrosidase).
Reduction of Brain and Liver Glucosylceramide and Glucosylsphingosine in CBE Mice
The reduction by inhibitors of GCS in brain glucosylceramide and glucosylsphingosine content was determined by the use of mice with Gba 1 mutant alleles, termed D409V/null. These are knock-in mice with a Gba 1 point mutation encoding Valine (V) 409 for the wild type (WT) Aspartate (D) on one missense allele and a null heteroallele [D409V/null (9V/null)]. The D409V/null and WT littermates were of mixed gender and mixed, but matched, genetic backgrounds of C57BL/129Sv/FVB. […] Mice were concurrently treated with GCS inhibitor or vehicle control for 14 days. The mice were sacrificed 2 hours following the last injection and tissues including brain, liver, spleen, kidney and lung were analyzed for glucosylceramide and glucosylsphingosine by mass spectrometry.
Mouse Tissue Lipid Analysis
Lipid extractions of liver, kidney, and brain were performed as previously described (7). Briefly, frozen liver (about 0.5 g), two kidneys (about 0.3 g) and whole brain (about 0.4 g) were individually homogenized in sucrose buffer (250 mM sucrose, pH 7.4, 10 mM HEPES and 1 mM EDTA), at 0.2 g tissue/1 mL of sucrose buffer, with a Tri-R homogenizer. Each 0.8 mL of homogenate was mixed with 2 mL of methanol and 1 mL of chloroform, bath sonicated for 1 min and incubated at room temperature for 1 h. Tissue debris were removed by centrifugation at 2.400 x gravity for 30 min. The pellets were reextracted by mixing with 1 mL of methanol, 0.5 mL of chloroform and 0.4 mL of 0.9% NaCl (chloroform/methanol/0.9% NaCl, 1:2:0.8), incubated at room temperature for 1 h and centrifuged at 2.400 x gravity for another 30 min. Two extracts were combined and mixed with 4.5 mL of chloroform and 1.2 mL of 0.9% NaCl (chloroform/methanol/0.9% NaCl, 2:1:0.8). After centrifugation at 800 x gravity for 5 min, lower layer was washed with 3 mL of methanol and 2.4 mL of 0.9% NaCl. Second washing was carried with 3 mL of methanol, 2 mL of water and 0.4 mL of 0.9% NaCl followed by a 5 min centrifugation at 800 x gravity. The resultant lower phase was collected and dried under a stream of N2 gas.
The analysis of neutral glycosphingolipids from mouse liver, kidney, and brain was processed after alkaline methanolysis. Kidney lipids were incubated with 2 mL of chloroform and 1 ml of 0.21 N NaOH in methanol for 2 h (kidney) or 7.5 h (liver and brain) at RT. […] GlcCer levels were quantified by comparison to known standards.

[3] = Pharmacokinetics in mice: plasma and brain drug AUC; format: in vivo; conditions: over 7 hrs following single IP injection at 10 mg/kg; for Kp / AUC: mouse; for Kp: brain/plasma; for AUC: plasma
[4] = 24 hours exposure, glucosylceramide level

| Kp [3] | AUC [3] [ng·h/mL] | Brain drug AUC [3] [ng·h/g] | IC50 (GCS in MDCKII cells; cell marked 'rac': value of the racemate, 24 hours) [nM] | Plasma drug AUC [3] [ng·h/mL] | SMILES | IC50 [1] [nM] | IC50 (GCS in MDCKII cells; [4]) [nM] | CBE mouse GlcCer reduction in brain ([2]; dose 100 µmol/kg) [%] | CBE mouse GlcCer reduction in liver ([2]; dose 100 µmol/kg) [%] | CBE mouse GlcCer reduction in brain ([2]; dose 72 µmol/kg) [%] | CBE mouse GlcCer reduction in liver ([2]; dose 72 µmol/kg) [%] |
| --- | --- | --- | --- | --- | --- | --- | --- | --- | --- | --- | --- |
| 0.35 | 1120 | 398 | 6.5 | – | O=C(CC1Cc2ccccc2C1)N[C@H](CN1CCCC1)[C@H](O)c1ccc(OC(F)(F)F)cn1 [Example 21, 2-(2,3-dihydro-1H-inden-2-yl)-N-((1S,2R)-1-hydroxy-3-(pyrrolidin-1-yl)-1-(5-(trifluoromethoxy)pyridin-2-yl)propan-2-yl)acetamide] | 77 | – | – | – | – | – |
| 0.17 | 1040 | 173 | – | – | O=C(CC1Cc2ccccc2C1)N[C@H](CN1CCCC1)[C@H](O)c1cc(Cl)ccn1 [Example 25, N-((1S,2R)-1-(4-chloropyridin-2-yl)-1-hydroxy-3-(pyrrolidin-1-yl)propan-2-yl)-2-(2,3-dihydro-1H-inden-2-yl)acetamide] | 36.4 | – | – | – | 30 | 36 |
| 0.72 | – | 1109 | – | – | O=C(CC1Cc2ccccc2C1)N[C@H](CN1CCCC1)[C@H](O)c1cccc(Cl)c1 [reference compound] | – | – | – | – | – | – |

The remaining lines, values behind:

| SMILES | Kp [3] | AUC [3] [ng·h/mL] | Brain drug AUC [3] [ng·h/g] | IC50 (GCS in MDCKII cells; cell marked 'rac': value of the racemate, 24 hours) [nM] | Plasma drug AUC [3] [ng·h/mL] | IC50 [1] [nM] | IC50 (GCS in MDCKII cells; [4]) [nM] | CBE mouse GlcCer reduction in brain ([2]; dose 100 µmol/kg) [%] | CBE mouse GlcCer reduction in liver ([2]; dose 100 µmol/kg) [%] | CBE mouse GlcCer reduction in brain ([2]; dose 72 µmol/kg) [%] | CBE mouse GlcCer reduction in liver ([2]; dose 72 µmol/kg) [%] |
| --- | --- | --- | --- | --- | --- | --- | --- | --- | --- | --- | --- |
| CC(C)(C)Oc1ccc([C@@H](O)[C@@H](CN2CCCC2)NC(=O)CC2Cc3ccccc3C2)nc1 [Example 17, N-((1S,2R)-1-(5-(tert-butoxy)pyridin-2-yl)-1-hydroxy-3-(pyrrolidin-1-yl)propan-2-yl)-2-(2,3-dihydro-1H-inden-2-yl)acetamide] | 0.34 | 902 | 308 | – | – | 11.3 | 4.6 | 23 | 34 | – | – |
| CC(C)(C)Oc1ccc([C@@H](O)[C@@H](CN2CCCC2)NC(=O)CC2Cc3ccc(F)cc3C2)nc1 (stereo partly drawn) [Example 24, N-((1S,2R)-1-(5-(tert-butoxy)pyridin-2-yl)-1-hydroxy-3-(pyrrolidin-1-yl)propan-2-yl)-2-(5-fluoro-2,3-dihydro-1H-inden-2-yl)acetamide] | – | – | – | – | – | 568 | 23.8 | – | – | – | – |
| CC(C)(C)Oc1ccc([C@@H](O)[C@@H](CN2CCCC2)NC(=O)CC2Cc3ccccc3C2)cc1 [reference compound] | 0.58 | 1070 | 619 | – | – | – | – | – | – | – | – |
| O=C(CC1Cc2ccccc2C1)N[C@H](CN1CCCC1)[C@H](O)c1ccc(OC(F)(F)F)cc1 [reference compound] | 0.8 | – | 1046 | – | 1308 | – | – | – | – | – | – |
